From paper PMC9410914 (2022)

Test system: WT R-mRNA+30 (I-2S8) (RNA, riboswitch) GGGCAGUGAGCAACAAAAUGCUCACCUGGGUCGCAGUAACCCCAGUUAACAAAACAAGGGAGGUAAUUUUGUGCCCAAAAAAAGAAUAAAAGAUUUAGCU
Assay: single-molecule TIRF (SiM-KARB), 30S binding/dissociation rates vs preQ1, global Hill fit
Details: K+ 100 mM, Mg2+ 5 mM, NH4+ 5 mM, Ca2+ 0.5 mM; apparent; Tris-polymix pH 7.5, spermidine, putrescine; 20 nM Cy5-30S ribosomal subunits present; indirect readout

- K1/2: ~ 48 nM
Structure (SMILES): NCc1c[nH]c2nc(N)[nH]c(=O)c12
